# Results as given in patent US9259412B2, “Composition of the treatment of vascular diseases or KCa3.1 channel-mediated diseases comprising modafinil or derivatives thereof” (EWHA UNIVERSITY—INDUSTRY COLLABORATION FOUNDATION, priority 2011, dated 2016).
# Like-named read-outs stand apart in the source and are kept apart here.
# Tests used:
# [1] = system: rat pulmonary arterial rings; assay: Contraction measurement on isolated rat pulmonary arterial rings; conditions: for effect on vascular smooth muscle contraction: norepinephrine (0.1 μM)-induced contraction of rat pulmonary artery; for IC50: Rattus norvegicus
# Procedure: (§1) Experimental animals were used to examine the effect of modafinil on relaxation of contracted blood vessels. Five to six-month-old mice or rats were anaesthetized by an intraperitoneal injection of pentobarbital sodium (50 mg/kg, weight). The mouse thoracic aorta and rat pulmonary artery were dissected out and cut into rings of about 3 mm. Mechanical responses were recorded from the ring segments using a home-made myograph. Each ring was threaded with two strands of tungsten wire (120 μm in diameter). One wire was anchored in the organ bath chamber (1 ml) and the other was connected to a mechano-transducer (Grass, FT-03) mounted on a three dimensional manipulator. The muscle chamber was perfused at a flow rate of 2.5 ml/minute with oxygenated (95% O2/5% CO2) Krebs/Ringer bicarbonate solution with a peristaltic pump. The composition (unit: mM) of the Krebs solution was as follows: NaCl 118.3, KCl 4.7, MgCl2 1.2, KH2PO4 1.22, CaCl2 2.5, NaHCO3 25.0, glucose 11.1, pH 7.4. Endothelial cells were removed by gentle rubbing with a cotton ball and NO production in endothelial cells was inhibited by pretreating with NG-nitro-1-arginine methyl ester (l-NAME). Rings were pre-contracted with 0.1 μM norepinephrine or 30 mM K+.
# Since increase in intracellular cAMP in vascular smooth muscle cells activates PKA and phosphorylates myosin light chain active enzyme to relax vascular smooth muscles, the present inventors examined whether modafinil relaxes vascular smooth muscles. Mouse aortic rings or rat pulmonary arterial rings were contracted by norepinephrine (0.1 μM). When the contraction reached a steady-state, modafinil was applied. With the application, the contracted mouse aortic ring (FIGS. 3A and 3B) or rat pulmonary arterial ring (FIGS. 3C and 3D) was relaxed in a concentration-dependent manner. […] When rat pulmonary artery was contracted by K+ (30 mM) of a high concentration, modafinil relaxed the contracted artery in a concentration-dependent manner (FIG. 3E). When the concentration-dependent reaction of rat pulmonary artery was fitted to Hill's equation, the IC50 of modafinil was determined to be 10.5±0.4 nM (FIG. 3F).
# KCa3.1 channel [2] = target: T1, KCa3.1 channel (Mus musculus, UniProt O89109); assay: Whole-cell patch-clamp of KCa3.1 currents in NIH-3T3 fibroblasts; type: cell-based
# T1 construct: cells which were not exposed to modafinil or forskolin were immunoblotted by anti-KCa3.1 antibody to confirm the presence of KCa3.1 channels; endogenous in cells; host or cells: NIH-3T3 fibroblasts
# T1 sequence (O89109 whole entry): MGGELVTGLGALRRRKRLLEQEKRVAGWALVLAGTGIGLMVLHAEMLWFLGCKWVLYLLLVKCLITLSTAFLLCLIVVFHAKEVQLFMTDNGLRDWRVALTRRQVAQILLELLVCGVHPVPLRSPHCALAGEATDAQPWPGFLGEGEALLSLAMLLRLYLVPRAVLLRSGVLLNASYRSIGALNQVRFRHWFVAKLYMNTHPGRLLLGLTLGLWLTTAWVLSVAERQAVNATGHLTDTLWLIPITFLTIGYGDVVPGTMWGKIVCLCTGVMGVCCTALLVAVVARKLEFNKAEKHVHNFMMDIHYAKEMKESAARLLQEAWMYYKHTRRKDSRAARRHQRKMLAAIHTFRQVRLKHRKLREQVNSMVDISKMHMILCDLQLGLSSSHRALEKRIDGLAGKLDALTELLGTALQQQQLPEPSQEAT
# Procedure: (§2) Electrophysiological analysis was performed according to the methods reported by Nilius and the like [Nilius et al., 1993, Pflugers Arch., 424(3-4): 285-293]. The patch-clamp technique was used in the whole-cell and excised patch configurations at room temperature. Whole-cell currents were measured using ruptured patches. Currents were monitored using an appropriate amplifier (EPC-10, HEKA, Lambrecht, Germany). In the whole cell experiment, we applied a voltage ramp from −100 mV to +100 mV with a 10 sec interval (650 ms duration) or voltage steps from a holding potential of −60 mV to potentials ranging from −100 mV to +100 mV in 20 mV increments (1 sec duration) with a 5 sec interval. Currents were recorded at a sampling rate of 1-4 kHz. Inside-out voltage clamps were performed using glass electrodes of tip resistance of 8-10 MΩ. Data were filtered at 1 KHz and stored in a computer for analysis using standard software (Axoscope 9.0, Axon Instruments, Foster City, Calif., USA). For some experiments, channel activity was expressed as the product of the number of channels times open probability (NPo), where NPo=Σ[(open time×number of open channels)/Total time of record].
# (§3) The standard external solution contains the following substance within NaOH solution of pH 7.4; 150 mM NaCl, 6 mM KCl, 1.5 mM CaCl2, 1 mM MgCl2, 10 mM HEPES, and 10 mM glucoses. The osmolarity of this solution, as determined by an osmometer (Fiske, Norwood, Mass., USA), was 320±5 mOsm. In the inside-out mode, the bath solution contains 150 mM KCl, 0.5 mM MgCl2, 10 mM HEPES within KOH solution of pH 7.2, and the pipette solution contains 150 mM NaCl, 6 mM KCl, 1 mM MgCl2, 10 mM HEPES, 10 mM glucoses, 5 mM EGTA within NaOH solution of pH 7.4. Free Ca2+ concentrations in the pipette or bath solutions were adjusted to 1 μM by adding appropriate amounts of Ca2+ (calculated using CaBuf software; G. Droogmans, Leuven, ftp://ftp.cc.kuleuven.ac.be/pub/droogmans/cabuf.zip) in the presence of 5 mM EGTA.
# KCa3.1 currents were activated by adding 1-ethyl-2-benzimidazolinone (1-EBIO, 100 μM) to the external solution and loading 1 μM Ca2+ via patch pipette in whole-cell clamped NIH-3T3 fibroblasts.
# NIH-3T3 fibroblasts = assay: Measurement of intracellular cAMP in NIH-3T3 fibroblasts; type: cell-based; conditions: for intracellular cAMP concentration: NIH-3T3 cells
# Procedure: Meanwhile, NIH-3T3 fibroblasts were used to verify the effect on KCa3.1 mediated diseases. NIH-3T3 fibroblasts (CRL-2795; American Type Culture Collection, VA, USA) were maintained in the following manner. Cells were cultivated as a monolayer in Dulbecco's Modified Eagle Medium (DMEM, Hyclone, Logan, Utah, USA) added with 10% fetal bovine serum (FBS), 100 units/ml penicillin, and 100 μg/ml streptomycin. All cells were maintained at 37° C. in humidified condition under 5% CO2. Media were changed twice weekly, and cultures were passaged at a dilution of 1:5 weekly. The medium was then removed and replaced with fresh medium, and the cells were maintained for the time periods indicated.
# NIH-3T3 fibroblasts were incubated with modafinil for 3 minutes within incomplete media. The concentration of cAMP (adenosine 3′,5′-cyclic monophosphate) from lysate was determined in each sample using a Parameter cAMP assay kit (R&D systems) according to the manufacturer's instructions.
# KCa3.1 channel [3] = target: T1, KCa3.1 channel; assay: Inside-out patch single channel recording of KCa3.1 channels in NIH-3T3 cells; type: cell-based
# Procedure: as §2, §3
# In inside-out patches, KCa3.1 channels were activated by clamping Ca2+ concentration of the bath solution to 1 μM and applying 1-EBIO. The holding potential was then changed from −70 to 50 mV (FIG. 7). The single channel currents were inhibited by TRAM-34. […] The present inventors then applied modafinil (30 or 100 nM) to the bath solution. […] The open probability was also not changed by modafinil (FIGS. 7A and 7B). A linear fit of the data between 50 to −70 mV yielded a slope conductance of 38.1 pS in the control group and 39.4 pS in the presence group of modafinil (FIG. 7C).
# KCa3.1 channel [4] = assay: Western blotting of KCa3.1 channel phosphorylation in NIH-3T3 cells; type: cell-based
# Procedure: After the treatment, cells were washed once in ice-cold phosphate buffered saline (PBS) and lysed in protein extraction buffer containing protease inhibitor cocktail. Protein concentration in the supernatant was determined by Bradford protein assay. For Western blot analysis, 30 μg of protein was subjected to SDS-PAGE, and proteins were then transferred to a nitrocellulose membrane. Membranes were blocked for 1 hour with TBST (10 mM Tris-HCl, 150 mM NaCl, and 1% (v/v) Tween-20, pH 7.6) containing 5% bovine serum albumin (BSA) at room temperature. The blots were incubated for 3 hours with rabbit anti-P-PKA substrate antibody followed by incubation with horseradish peroxidase-conjugated secondary antibodies for 1 hour. Bands were visualized by chemiluminescence. Data collection and processing were performed using a luminescent image analyzer LAS-3000 and IMAGE GAUSE software (Fuji Film, Japan).
# mouse aortic rings = assay: Contraction measurement on isolated mouse aortic rings; conditions: mouse aortic rings contracted by norepinephrine (0.1 μM), Hill's equation; read-out: IC50 of relaxation of contracted rings
# Procedure: as §1, with “K+. […]” for “K+.”
# [5] = system: mouse aortic smooth muscle cells; assay: Measurement of intracellular cAMP in cultured mouse aortic smooth muscle cells; type: cell-based
# Procedure: Single smooth muscle cells (SMCs) were used to examine the effect of modafinil on vascular diseases. Single smooth muscle cells were separated from an aorta of the mouse. Three to four-month-old mice of either gender were anaesthetized with pentobarbital sodium (50 mg/kg weight) and sacrificed by cervical dislocation. Thoracic aortas were dissected out in Ca2+-free external solution and dissociated by incubation in papain (1 mg/ml) for 5 min followed by incubation in collagenase (1.5 mg/ml), bovine serum albumin (BSA; 2 mg/ml) and dithiothreitol (1 mg/ml) for 10 to 20 min in Ca2+-free external solution at 37° C. Segments were then transferred to fresh Ca2+-free external solution, and single mouse SMCs were dispersed with gentle agitation using a glass pipette. Mouse aortic SMCs were cultivated in Dulbecco's Modified Eagle Medium (DMEM) containing 10% fetal bovine serum (FBS) plus 1% minimum essential amino acids (Life Technologies). Cell culture was maintained at 37° C. in fully humidified air with 5% CO2.
# Cultured mouse aortic SMCs were incubated with modafinil for 3 minutes within incomplete media. The concentration of cAMP (adenosine 3″,5″-cyclic monophosphate) from lysate was determined in each sample using a Parameter cAMP assay kit (R&D Systems) according to the manufacturer's instructions.
# [6] = currents activated by 1 μM Ca2+ and 1-EBIO 100 μM
# [7] = modafinil 30 or 100 nM in bath solution
smiles,measurement,setting,value
"O=C(C[S+]([O-])C(c1ccccc1)c1ccccc1)NCC1CCCO1 (centres unmarked) [M020, 2-(benzhydrylsulfinyl)-N-((tetrahydrofuran-2-yl)methyl) acetamide]",effect on vascular smooth muscle contraction,[1],relaxed
same,effect on KCa3.1 currents,KCa3.1 channel [2]; [6],inhibited
same,intracellular cAMP concentration,NIH-3T3 fibroblasts,increased the intracellular cAMP concentration in a concentration-dependent manner
Clc1ccccc1C(c1ccccc1)(c1ccccc1)n1cccn1 [TRAM-34],effect on KCa3.1 currents,KCa3.1 channel [2]; [6],inhibited
same,effect on single channel currents,KCa3.1 channel [3]; activated by 1 μM Ca2+ and 1-EBIO,inhibited
O=S(=O)(NCCNC/C=C/c1ccc(Br)cc1)c1cccc2cnccc12 [H89],effect on channel phosphorylation in the resting state and by forskolin,KCa3.1 channel [4]; NIH-3T3 cells pretreated with PKA inhibitor for 30 min,completely abolished
"O=C(CSC(c1ccccc1)c1ccccc1)Nc1ccccc1 [M008, 2-(benzhydrylthio)-N-phenylacetamide]",effect on vascular smooth muscle contraction,[1],relaxed
same,effect on KCa3.1 currents,KCa3.1 channel [2]; [6],inhibited
same,intracellular cAMP concentration,NIH-3T3 fibroblasts,increased the intracellular cAMP concentration in a concentration-dependent manner
CC#CCC(C)[C@H](O)/C=C/[C@@H]1[C@H]2C/C(=C/CCCC(=O)O)C[C@H]2C[C@H]1O (some centres unmarked) [iloprost],IC50,[1]; read-out: IC50 of inhibition of rat pulmonary arterial contraction,39.4 ± 5.1 nM
same,intracellular cAMP concentration,NIH-3T3 fibroblasts,increased cAMP concentration
"NC(=O)C[S+]([O-])C(c1ccccc1)c1ccccc1 (centres unmarked) [modafinil, 2-(benzhydrylsulfinyl) acetamide]",IC50,[1]; read-out: IC50 of relaxation of contracted artery,10.5 ± 0.4 nM
same,IC50,[1]; read-out: IC50 of relaxation of contracted rings,10.1 ± 0.1 nM
same,IC50,mouse aortic rings,11.9 ± 0.3 nM
same,IC50,KCa3.1 channel [2],6.8 ± 0.7 nM
same,effect on KCa3.1 currents in cells pretreated by H89,KCa3.1 channel [2]; H89 (10 μM) pretreatment,not inhibited
same,effect on KCa3.1 currents with PKI14-22 in the pipette solution,KCa3.1 channel [2]; PKI14-22 (10 μM) in pipette solution,not affected
same,concentration for maximal inhibition of KCa3.1 currents,KCa3.1 channel [2]; [6],100.0 ± 5.7 nM
same,slope conductance of single KCa3.1 channel,"KCa3.1 channel [3]; linear fit between 50 to -70 mV, in the presence of modafinil",39.4 pS
same,open probability of KCa3.1 channels,KCa3.1 channel [3]; [7],not changed
same,single channel activity of KCa3.1 channels,KCa3.1 channel [3]; [7],did not change
same,intracellular cAMP concentration,[5]; cultured mouse aortic SMCs exposed for 3 minutes,increased in a concentration-dependent manner
same,concentration from which intracellular cAMP concentration significantly increased,"[5]; primary cultured mouse aortic smooth muscle cells, 3 min, p<0.01",10 nM
same,concentration of cAMP compared to treating the cell with 10 μM of forskolin,"NIH-3T3 fibroblasts; NIH-3T3 cell, 1 μM of modafinil",2 times
same,intracellular cAMP concentration,NIH-3T3 fibroblasts,increased in a concentration-dependent manner
same,KCa3.1 channel phosphorylation,"KCa3.1 channel [4]; NIH-3T3 cells, treatment for 5 min",increased KCa3.1 phosphorylation in a concentration-dependent manner
"CNC(=O)C[S+]([O-])C(c1ccccc1)c1ccccc1 (centres unmarked) [M015, 2-(benzhydrylsulfinyl)-N-methylacetamide]",effect on vascular smooth muscle contraction,[1],relaxed
same,effect on KCa3.1 currents,KCa3.1 channel [2]; [6],inhibited
same,intracellular cAMP concentration,NIH-3T3 fibroblasts,increased the intracellular cAMP concentration in a concentration-dependent manner
"O=C(CSC(c1ccccc1)c1ccccc1)NCC1CCCO1 (centres unmarked) [M006, 2-(benzhydrylthio)-N-((tetrahydrofuran-2-yl)methyl)acetamide]",effect on vascular smooth muscle contraction,[1],relaxed
same,effect on KCa3.1 currents,KCa3.1 channel [2]; [6],inhibited
same,intracellular cAMP concentration,NIH-3T3 fibroblasts,increased the intracellular cAMP concentration in a concentration-dependent manner
